What was measured:
Assay type in all cases: in vivo
[1] = test system: soybean having the Als1 mutation; assay: Greenhouse postemergence test of ALS-inhibiting herbicides, soybean with Als1 mutation; conditions: for phytotoxic response (in words), Als1: rates 0.5x to 8x the label rate
Protocol: (§1) Soybean lines having wild type als1 & 2 genes, the Als1 mutation, the Als2 mutation, or both the Als1 and Als2 mutations were evaluated for their response to various herbicides. Two seeds from each line were planted into 4-inch pots containing Redi-Earth potting mix (Sun Gro Horticulture Canada Ltd. 52130 RR65, Seba Beach, Alberta TOE 2B0), with two replications planted for each treatment. Pots were placed in flats at 15 pots/flat, and the resulting plants were grown in a greenhouse environment supplemented with lighting (16 hr photoperiod) for the duration of the test. Selected herbicides representing the mode of action that inhibits the acetolactate synthase enzyme, also known as the acetohydroxyacid synthase enzyme, were applied postemergence to soybean when soybean plants were at the V2 growth stage, which is the stage at which the first two trifoliolate leaves were expanded.
(§2) Eleven active ingredients representing the five chemical families with herbicidal activity on the acetolactate synthase enzyme were tested. These herbicides can cause a phytotoxic response in wild type soybean plants. The five chemical families tested were sulfonylaminocarbonyltriazolinone (also known as triazolinone), imidazolinone, sulfonylurea, pyrimidinylthiobenzoate, and triazolopyrimidine. Application rates ranged from 0.5 times to eight times the currently labeled application rate for each active ingredient with spray application volume at 30 gallons/acre. The application rates tested were 0.5×, 1×, 2×, 4× and 8× the label rate for each herbicide. Herbicidal active ingredients were applied as formulated materials dispersed in water containing 0.25% nonionic surfactant (Trend® 90).
(§3) The test was evaluated by visually scoring plant phenotype 14 days after the herbicides were applied. Controls consisted of soybean plants of the same variety that received no herbicide treatments for each of all the varieties tested. Soybean response was recorded on a zero to 100 visual scale in which zero is no phytotoxic response and 100 is plant death fourteen days after the herbicides were applied. Soybean response (percent phytotoxicity) to postemergence applications of herbicides inhibiting the acetolactate synthase enzyme test results are shown in Table 1.
(§4) Results in Table 1 were evaluated using the isobole method for analyzing interactions. […] Here the biologically active agents that are being assessed for interaction (synergy) are gene mutations in soybean. The effectiveness of the genes in providing improved tolerance to ALS-inhibiting herbicides was assessed by applying increasing doses of herbicides to each soybean line with its mutation(s).
(§5) An isobole reduces a dose response surface in three dimensional space to a two dimensional plot by fixing a defined response level (e.g., 50% response). The isobole plot is a graph in the Cartesian plane with a straight line connecting the isoeffective rates of the individual components of the combination. This straight line represents expected responses for zero interactive combinations. The isoeffective rate used to create the isobole is often the EC50, the rate estimated to elicit 50% response, but other ECx values can be used. Since the isobole method is based on the potency of the components of the combination, an experimental design testing a range of rates expected to elicit the full range of responses (e.g., 0 to maximum response) is best. (Ferry et al. (2005) 2005 Conference on Applied Statistics in Agriculture Proceedings pp 33-50, Manhattan, Kans., Kansas State Univ.; Green and Streibig (1993) Herbicide Mixtures, pp 117-134 in Herbicide Bioassays, Streibig and Hudsk Eds, CRC, Boca Raton, Fla.).
(§6) Loglogistic dose response curves were fit to percent phytotoxicity response data using log 10 of dose (McCullagh and Nelder (1989) Generalized Linear Models, Chapman & Hall, London). Curves were fit using the logit link with normal errors. […]

[2] = test system: soybean having the Als2 mutation; assay: Greenhouse postemergence test of ALS-inhibiting herbicides, soybean with Als2 mutation; conditions: for phytotoxic response (in words), Als2: rates 0.5x to 8x the label rate
Protocol: as §1, §2, §3, §4, §5, §6

[3] = test system: soybean having both the Als1 and Als2 mutations; assay: Greenhouse postemergence test of ALS-inhibiting herbicides and isobole analysis, soybean with Als1 and Als2 mutations; conditions: for phytotoxic response (in words), Als1+Als2: rates 0.5x to 8x the label rate
Protocol: as §1, §2, §3, §4, §5, §6

wild type soybean = assay: Greenhouse postemergence test of ALS-inhibiting herbicides, wild type soybean
Protocol: as §1, §2, §3

[4] = 8.75 g ai/ha postemergence at V2, scored 14 days after application
[5] = 17.5 g ai/ha postemergence at V2, scored 14 days after application
[6] = 35 g ai/ha postemergence at V2, scored 14 days after application
[7] = 70 g ai/ha postemergence at V2, scored 14 days after application
[8] = 140 g ai/ha postemergence at V2, scored 14 days after application

SMILES | Soybean response (percent phytotoxicity), Als1 [1, 4] [%] | Soybean response (percent phytotoxicity), Als1 [1, 5] [%] | Soybean response (percent phytotoxicity), Als1 [1, 6] [%] | Soybean response (percent phytotoxicity), Als1 [1, 7] [%] | Soybean response (percent phytotoxicity), Als1 [1, 8] [%] | phytotoxic response (in words), Als1 [1] | Soybean response (percent phytotoxicity), Als2 [2, 4] [%] | Soybean response (percent phytotoxicity), Als2 [2, 5] [%] | Soybean response (percent phytotoxicity), Als2 [2, 6] [%] | Soybean response (percent phytotoxicity), Als2 [2, 7] [%] | Soybean response (percent phytotoxicity), Als2 [2, 8] [%] | phytotoxic response (in words), Als2 [2] | Soybean response (percent phytotoxicity), Als1 + Als2 [3, 4] [%] | Soybean response (percent phytotoxicity), Als1 + Als2 [3, 5] [%] | Soybean response (percent phytotoxicity), Als1 + Als2 [3, 6] [%] | Soybean response (percent phytotoxicity), Als1 + Als2 [3, 7] [%] | Soybean response (percent phytotoxicity), Als1 + Als2 [3, 8] [%] | phytotoxic response (in words), Als1+Als2 [3] | Soybean response (percent phytotoxicity), Wild type (wild type soybean; [4]) [%] | Soybean response (percent phytotoxicity), Wild type (wild type soybean; [5]) [%] | further results
COc1cc(Cl)nc(NC(=O)NS(=O)(=O)c2ccccc2C(=O)O)n1 [Chlorimuron] | 0 | 0 | 0 | 0 | 0 | did not cause any phytotoxic response | 0 | 0 | 0 | 0 | 0 | did not cause any phytotoxic response | 0 | 0 | 0 | 0 | 0 | did not cause any phytotoxic response | 0 | 5 | Soybean response (percent phytotoxicity), Wild type (wild type soybean; [6]): 20%; Soybean response (percent phytotoxicity), Wild type (wild type soybean; [7]): 35%; Soybean response (percent phytotoxicity), Wild type (wild type soybean; [8]): 45%
CCOc1nc(F)cc2nc(S(=O)(=O)Nc3c(Cl)cccc3C(=O)OC)nn12 [Cloransulam methyl] | 0 | 0 | 0 | 0 | 0 | did not cause any phytotoxic response | 0 | 0 | 0 | 0 | 0 | did not cause any phytotoxic response | 0 | 0 | 0 | 0 | 0 | did not cause any phytotoxic response | 0 | 0 | Soybean response (percent phytotoxicity), Wild type (wild type soybean; [6]): 0%; Soybean response (percent phytotoxicity), Wild type (wild type soybean; [7]): 5%; Soybean response (percent phytotoxicity), Wild type (wild type soybean; [8]): 15%

— US20130254944A1, “Herbicide Tolerant Soybeans and Methods of Use” (PIONEER HI BRED INTERNATIONAL INC, priority 2012, published 2013)
